# Experimental data: ChEMBL document CHEMBL1136094, “Novel, potent and selective cyclin D1/CDK4 inhibitors: indolo[6,7-a]pyrrolo[3,4-c]carbazoles” (Bioorg Med Chem Lett, 2003)
# Several values for one entry are separate records, joined by “and”; a condition that tells them apart may be missing. Identical values can stand only once.
# What was measured:
# CaM kinase II = CaM kinase II (Homo sapiens, UniProt Q13557+Q13555+Q13554+Q9UQM7); assay: Inhibitory activity against Calcium/calmodulin-dependent protein kinase type II; assay type: protein assay
# [1] = biological target: cAMP-dependent protein kinase (PKA) (Homo sapiens, UniProt P22694+P17612+P22612); assay: Inhibitory activity against Protein kinase A (Histone); assay type: protein assay
# [2] = biological target: Cyclin-dependent kinase 2/cyclin E (Homo sapiens, UniProt P24941); assay: Inhibitory activity against Cyclin E-cyclin-dependent kinase 2 in enzymatic assay by measuring phosphorylation of RbING; assay type: protein-complex assay
# HCT-116 [3] = assay: In vitro antiproliferative activity against human carcinoma cell line HCT116 (colon); assay type: functional, cell-based
# [4] = biological target: T1, Cyclin-dependent kinase 4/cyclin D1 (Homo sapiens, UniProt P11802); assay: Inhibitory activity against Cyclin D1-cyclin-dependent kinase 4 in enzymatic assay by measuring phosphorylation of RbING; assay type: protein-complex assay
# [5] = biological target: T1, Cyclin-dependent kinase 4/cyclin D1; assay: Inhibitory activity against Cyclin D1-cyclin-dependent kinase 4 in enzymatic assay by measuring phosphorylation of Rb21; assay type: protein-complex assay
# NCI-H460 = assay: In vitro antiproliferative activity against human carcinoma cell line H460 (lung); assay type: functional, cell-based
# [6] = biological target: Cyclin-dependent kinase 4 (Homo sapiens) (UniProt P11802); assay: Inhibition of Rb phosphorylation at the CDK4 specific Ser780 residue (1 fold increase over control) after 24 hr incubation in HCT116 cells; assay type: functional, cell-based; conditions: HCT-116, concentration not given here
# [7] = biological target: Cyclin-dependent kinase 4 (Homo sapiens) (UniProt P11802); assay: Inhibition of Rb phosphorylation at the CDK4 specific Ser780 residue (3 fold increase over control) after 24 hr incubation in HCT116 cells; assay type: functional, cell-based; conditions: HCT-116, concentration not given here
# HCT-116 [8] = assay: GI arrest (1 fold increase over control) in HCT116 cells was determined by flow cytometry after 24 hr incubation; assay type: functional, Homo sapiens
# T1 sequence (P11802 whole entry): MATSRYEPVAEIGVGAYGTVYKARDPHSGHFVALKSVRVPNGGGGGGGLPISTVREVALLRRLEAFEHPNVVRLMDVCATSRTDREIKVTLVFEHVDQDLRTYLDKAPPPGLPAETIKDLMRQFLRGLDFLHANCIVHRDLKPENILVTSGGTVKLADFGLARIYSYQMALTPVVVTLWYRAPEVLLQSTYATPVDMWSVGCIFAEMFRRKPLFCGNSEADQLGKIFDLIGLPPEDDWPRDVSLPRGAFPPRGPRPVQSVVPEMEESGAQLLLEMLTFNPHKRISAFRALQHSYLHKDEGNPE
# T1 sequence (P24385 whole entry, further chain): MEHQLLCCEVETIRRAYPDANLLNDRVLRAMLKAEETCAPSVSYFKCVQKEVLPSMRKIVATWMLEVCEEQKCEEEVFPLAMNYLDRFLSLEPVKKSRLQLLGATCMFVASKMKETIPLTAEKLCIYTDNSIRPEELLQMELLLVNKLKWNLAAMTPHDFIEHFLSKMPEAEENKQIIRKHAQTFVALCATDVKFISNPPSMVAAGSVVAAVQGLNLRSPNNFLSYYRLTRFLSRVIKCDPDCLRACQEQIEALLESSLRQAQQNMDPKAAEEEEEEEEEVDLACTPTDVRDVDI
# Sequence of Cyclin-dependent kinase 4 (Homo sapiens) (P11802 whole entry): as the sequence (P11802 whole entry) above
SMILES,IC50 (CaM kinase II) [nM],IC50 [1] [nM],IC50 [2] [nM],IC50 (HCT-116 [3]) [nM],IC50 [4] [nM],IC50 [5] [nM],IC50 (NCI-H460) [nM],inhibition [6],inhibition [7],Fold increase (HCT-116 [8])
CN1CCN(CCCc2cccc3c2[nH]c2c4ccc5ccn(C)c5c4c4c(c32)C(=O)NC4=O)CC1,382,16600,1670,1380,52,–,1480,–,–,–
COc1ccc2c3c4c(c5c(ccc6ccn(C)c65)c3n(CCN3CCCCC3)c2c1)C(=O)NC4=O,> 20000,> 20000,928,3740,135,33,2470,–,–,–
Cn1ccc2ccc3c4[nH]c5c(CCN6CCSCC6)cccc5c4c4c(c3c21)C(=O)NC4=O,403,> 20000,1800,3410,82,24,3410,–,–,–
Cn1ccc2ccc3c4[nH]c5c(CCCN6CCOCC6)cccc5c4c4c(c3c21)C(=O)NC4=O,516,> 20000,1330,2820,56,43,1680,–,–,–
Cn1ccc2ccc3c4[nH]c5c(CCN6CCC(O)CC6)cccc5c4c4c(c3c21)C(=O)NC4=O [listing 1 of 2 here],–,–,–,–,–,–,–,68%,69%,–
Cn1ccc2ccc3c4[nH]c5c(CCN6CCC[C@H]6CO)cccc5c4c4c(c3c21)C(=O)NC4=O [listing 2 of 2 here],–,–,–,–,–,–,–,65%,73%,–
Cn1ccc2ccc3c4[nH]c5c(CCN6CCOCC6)cccc5c4c4c(c3c21)C(=O)NC4=O,–,–,–,–,–,–,–,57% and 69%,88% and 80%,–
Cn1ccc2ccc3c4[nH]c5c(CCN6CCC[C@H]6CO)cccc5c4c4c(c3c21)C(=O)NC4=O.O=C(O)C(F)(F)F,–,–,–,–,–,–,–,–,–,1.5
COC(=O)C1CCN(CCc2cccc3c2[nH]c2c4ccc5ccn(C)c5c4c4c(c32)C(=O)NC4=O)CC1,81,> 20000,972,> 10000,47,13,> 10000,–,–,–
COc1ccc2c3c4c(c5c(ccc6ccn(C)c65)c3n(CCCO)c2c1)C(=O)NC4=O,–,1040,113,1620,54,12,500,66%,95%,2.4
COc1ccc2c3c4c(c5c(ccc6ccn(C)c65)c3n(CCCN3CCSCC3)c2c1)C(=O)NC4=O,> 20000,> 20000,1260,2020,190,47,2110,–,–,–
COc1ccc2c3c4c(c5c(ccc6ccn(C)c65)c3n(CCN3CCC[C@H]3CO)c2c1)C(=O)NC4=O,6120,> 20000,942,2690,84,23,3800,–,–,–
COc1ccc2c3c4c(c5c(ccc6ccn(C)c65)c3n(CCCN3CCOCC3)c2c1)C(=O)NC4=O,> 20000,> 20000,716,1690,69,21,1630,–,–,–
COc1ccc2c(c1)[nH]c1c3ccc4ccn(C)c4c3c3c(c21)C(=O)NC3=O,–,> 20000,112,1800,53,6,1090,90%,97%,2.6
Cn1ccc2ccc3c4[nH]c5c(CCN6CCC(O)CC6)cccc5c4c4c(c3c21)C(=O)NC4=O.O=C(O)C(F)(F)F,–,–,–,–,–,–,–,–,–,1.8
CCOc1ccc2c(c1)[nH]c1c3ccc4ccn(C)c4c3c3c(c21)C(=O)NC3=O,–,> 20000,324,2350,44,10,3200,–,–,–
Cc1cc2ccn(C)c2c2c3c(c4c5ccccc5n(C)c4c12)C(=O)NC3=O,–,3900,267,4700,92,45,> 10000,–,–,–

# More lines, main results first:
IC50 (CaM kinase II) [nM],IC50 [1] [nM],IC50 [2] [nM],IC50 (HCT-116 [3]) [nM],IC50 [4] [nM],IC50 [5] [nM],IC50 (NCI-H460) [nM],inhibition [6],inhibition [7],SMILES,Fold increase (HCT-116 [8])
3130,2810,2100,1260,48,4,1130,–,–,COc1ccc2c3c4c(c5c(ccc6ccn(C)c65)c3n(CCCN3CCC(O)CC3)c2c1)C(=O)NC4=O,–
174,14100,1500,950,34,24,370,–,–,CCN(CC)CCCc1cccc2c1[nH]c1c3ccc4ccn(C)c4c3c3c(c21)C(=O)NC3=O,–
11600,2930,1230,450,95,14,900,–,–,COc1ccc2c3c4c(c5c(ccc6ccn(C)c65)c3n(CCCN3CCN(C)CC3)c2c1)C(=O)NC4=O,–
90,4580,685,420,39,23,210,–,–,Cn1ccc2ccc3c4[nH]c5c(CCN6CCC[C@H]6CO)cccc5c4c4c(c3c21)C(=O)NC4=O [listing 1 of 2 here],–
266,8310,567,770,40,19,1100,–,–,Cn1ccc2ccc3c4[nH]c5c(CCCNCCO)cccc5c4c4c(c3c21)C(=O)NC4=O,–
95,6120,265,170,33,10,330,–,–,Cn1ccc2ccc3c4[nH]c5c(CCNCCO)cccc5c4c4c(c3c21)C(=O)NC4=O,–
46,2990,978,200,45,8,140,–,–,Cn1ccc2ccc3c4[nH]c5c(CCN6CCC(O)CC6)cccc5c4c4c(c3c21)C(=O)NC4=O [listing 2 of 2 here],–
301,12900,2030,1040,49,15,1110,–,–,Cn1ccc2ccc3c4[nH]c5c(CCN6CCNCC6)cccc5c4c4c(c3c21)C(=O)NC4=O,–
–,2350,–,670,33,9,1080,37%,95%,Cn1ccc2ccc3c4[nH]c5cc(O)ccc5c4c4c(c3c21)C(=O)NC4=O,2.2
–,949,6,170,37,17,230,–,–,O=C1NC(=O)c2c1c1c(ccc3cc[nH]c31)c1[nH]c3cc(O)ccc3c21,–
–,5310,400,1200,134,90,1770,–,–,CCn1ccc2ccc3c(c4c(c5c6ccccc6n(CCCO)c35)C(=O)NC4=O)c21,–
